For 24 molecules, inhibition and IC50 results are on record in patent publication US9630958B2, “Triazine compounds” (Sphaera Pharma Pte. Ltd., priority 2012, dated 2017).

In one test the target is T1, Recombinant mTOR (FRAP1) (Homo sapiens, UniProt P42345).
T1 construct: purchased Invitrogen
Briefly: mTOR in vitro kinase assay (TR-FRET, phosphorylation of GFP-4E-BP1). Format: biochemical. Conditions: for inhibition at 1 µM: 1 uM compound, read-out: mTOR % Inhib@1 uM; for IC50: 8 μM ATP, 400 nM GFP-4E-BP1. The method, boiled down: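 Recombinant human mTOR with GFP-4E-BP1 substrate at 400 nM and 8 μM ATP, 1 h at room temperature, then quenched with 10 mM EDTA plus 2 nM Tb-anti-p4E-BP1 (pThr46) for 1 h. TR-FRET 520/486 nm ratio fitted against inhibitor concentration by four-parameter sigmoidal regression.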

The target of test [1] is T2, PI3 Kinase alpha (p110 alpha/p85 alpha) (Homo sapiens, UniProt P42336).
T2 construct: purchased Invitrogen
The test is described as follows: PI3K TR-FRET assay (Transcreener ADP2). Format: biochemical. To be noted: for IC50: PI3K alpha, 1 μM ATP, 50 μM PIP2; for inhibition at 1 µM: 1 uM compound, read-out: PI3K % Inhib@1 uM. Put shortly:
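p110α/p85α with diC8 PIP2 (50 μM) and 1 μM ATP in 50 mM HEPES pH 7.4, MgCl2, CHAPS, DTT, EGTA; 1 h at room temperature. ADP detected by Transcreener ADP2 TR-FRET (665/615 nm ratio), converted to product via ADP-ATP standard curve; IC50 from four-parameter fit of % inhibition.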
A general note: TR-FRET usually uses a lanthanide donor and a delayed reading to cut background.

T1 sequence (P42345 1360-2549 limits assumed): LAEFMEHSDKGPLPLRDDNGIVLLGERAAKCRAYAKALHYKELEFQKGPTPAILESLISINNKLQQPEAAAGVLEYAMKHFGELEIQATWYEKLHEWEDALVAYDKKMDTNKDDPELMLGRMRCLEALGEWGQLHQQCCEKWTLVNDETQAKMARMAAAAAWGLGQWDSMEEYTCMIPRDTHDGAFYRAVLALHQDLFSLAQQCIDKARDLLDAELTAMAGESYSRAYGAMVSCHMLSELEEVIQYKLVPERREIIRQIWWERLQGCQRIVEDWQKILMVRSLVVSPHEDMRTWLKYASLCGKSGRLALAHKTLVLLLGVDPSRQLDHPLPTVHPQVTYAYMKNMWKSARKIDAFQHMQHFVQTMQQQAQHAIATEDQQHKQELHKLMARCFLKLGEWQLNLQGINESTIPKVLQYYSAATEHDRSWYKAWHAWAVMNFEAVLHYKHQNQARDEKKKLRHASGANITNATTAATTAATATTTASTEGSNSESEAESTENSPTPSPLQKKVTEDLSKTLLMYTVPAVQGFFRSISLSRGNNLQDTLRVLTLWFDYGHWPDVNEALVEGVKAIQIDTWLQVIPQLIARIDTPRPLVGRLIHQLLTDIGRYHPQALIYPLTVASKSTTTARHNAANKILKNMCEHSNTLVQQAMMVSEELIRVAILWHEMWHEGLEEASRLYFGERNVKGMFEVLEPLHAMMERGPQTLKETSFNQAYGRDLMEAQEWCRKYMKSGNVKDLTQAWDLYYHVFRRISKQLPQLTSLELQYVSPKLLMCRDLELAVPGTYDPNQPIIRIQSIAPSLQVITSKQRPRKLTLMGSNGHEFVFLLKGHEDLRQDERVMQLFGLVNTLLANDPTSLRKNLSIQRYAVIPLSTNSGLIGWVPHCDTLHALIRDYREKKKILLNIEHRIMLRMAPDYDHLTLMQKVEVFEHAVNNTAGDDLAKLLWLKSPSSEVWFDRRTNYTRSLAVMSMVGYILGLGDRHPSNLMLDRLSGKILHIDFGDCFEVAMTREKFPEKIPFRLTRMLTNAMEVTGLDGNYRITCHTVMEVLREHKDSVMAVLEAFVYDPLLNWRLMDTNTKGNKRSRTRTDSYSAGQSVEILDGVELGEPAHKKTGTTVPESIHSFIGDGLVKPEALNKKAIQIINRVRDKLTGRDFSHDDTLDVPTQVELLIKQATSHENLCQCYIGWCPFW
T2 sequence (P42336 whole entry): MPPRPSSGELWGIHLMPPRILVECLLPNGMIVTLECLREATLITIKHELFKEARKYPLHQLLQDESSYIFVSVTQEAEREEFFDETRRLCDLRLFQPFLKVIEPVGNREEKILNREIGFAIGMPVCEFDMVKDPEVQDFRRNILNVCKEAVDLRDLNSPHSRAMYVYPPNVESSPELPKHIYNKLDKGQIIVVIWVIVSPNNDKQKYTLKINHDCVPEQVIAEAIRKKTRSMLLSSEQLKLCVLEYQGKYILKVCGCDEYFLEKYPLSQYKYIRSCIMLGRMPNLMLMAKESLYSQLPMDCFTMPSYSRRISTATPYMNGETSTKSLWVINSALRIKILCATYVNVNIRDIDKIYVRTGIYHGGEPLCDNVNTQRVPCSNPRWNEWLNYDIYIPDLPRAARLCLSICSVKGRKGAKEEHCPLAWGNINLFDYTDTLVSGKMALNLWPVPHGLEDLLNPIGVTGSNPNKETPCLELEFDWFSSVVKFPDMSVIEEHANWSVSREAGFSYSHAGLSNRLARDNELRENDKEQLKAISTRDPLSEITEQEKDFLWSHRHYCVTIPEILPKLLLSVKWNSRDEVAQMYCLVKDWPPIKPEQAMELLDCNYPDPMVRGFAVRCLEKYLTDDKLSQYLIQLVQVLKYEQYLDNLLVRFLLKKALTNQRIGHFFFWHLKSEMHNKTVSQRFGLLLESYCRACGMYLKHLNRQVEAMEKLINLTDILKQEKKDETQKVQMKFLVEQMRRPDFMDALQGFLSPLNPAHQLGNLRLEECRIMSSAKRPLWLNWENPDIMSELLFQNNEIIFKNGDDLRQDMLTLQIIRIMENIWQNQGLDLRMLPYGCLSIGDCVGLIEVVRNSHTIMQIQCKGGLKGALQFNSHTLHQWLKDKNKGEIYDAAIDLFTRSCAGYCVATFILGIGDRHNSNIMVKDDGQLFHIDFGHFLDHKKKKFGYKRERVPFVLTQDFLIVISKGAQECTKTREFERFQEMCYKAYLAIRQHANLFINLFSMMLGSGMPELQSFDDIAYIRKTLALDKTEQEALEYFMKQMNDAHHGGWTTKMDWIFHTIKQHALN
T2 sequence (P27986 whole entry partner): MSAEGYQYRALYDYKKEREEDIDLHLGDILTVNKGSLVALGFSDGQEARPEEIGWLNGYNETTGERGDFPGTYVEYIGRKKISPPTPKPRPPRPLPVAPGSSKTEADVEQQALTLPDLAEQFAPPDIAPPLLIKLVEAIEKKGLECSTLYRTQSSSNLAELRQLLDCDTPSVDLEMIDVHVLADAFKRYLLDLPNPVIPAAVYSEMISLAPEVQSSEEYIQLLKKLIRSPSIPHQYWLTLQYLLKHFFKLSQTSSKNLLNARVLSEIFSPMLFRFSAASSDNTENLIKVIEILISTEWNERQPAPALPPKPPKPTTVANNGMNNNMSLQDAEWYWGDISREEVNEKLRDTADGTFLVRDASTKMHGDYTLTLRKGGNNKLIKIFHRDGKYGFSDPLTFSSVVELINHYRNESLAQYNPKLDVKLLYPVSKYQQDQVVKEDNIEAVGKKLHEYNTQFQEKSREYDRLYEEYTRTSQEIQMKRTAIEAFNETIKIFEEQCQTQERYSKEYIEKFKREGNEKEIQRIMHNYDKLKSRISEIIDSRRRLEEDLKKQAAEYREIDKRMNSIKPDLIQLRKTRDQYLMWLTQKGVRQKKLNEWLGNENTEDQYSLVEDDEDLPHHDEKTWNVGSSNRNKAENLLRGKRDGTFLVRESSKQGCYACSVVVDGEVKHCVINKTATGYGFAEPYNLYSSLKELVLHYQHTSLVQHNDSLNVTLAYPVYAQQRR

`CN(C)C(=O)Cc1ccc(Oc2nc(-c3ccc(N)nc3)nc(N3CCOCC3)n2)cc1` [Compound 10180, 2-(4-((4-(6-aminopyridin-3-yl)-6-morpholino-1,3,5-triazin-2-yl)oxy)phenyl)-N,N-dimethylacetamide]: on Recombinant mTOR (FRAP1), the inhibition at 1 µM is more than 50% and the concentration for half-maximal inhibition (IC50) is less than 1000 nM. This molecule showed an IC50 in test [1] of less than 1000 nM.

In the case of `C[C@H]1COCCN1c1nc(Oc2ccc(C(=O)N(C)C)cc2)nc(-c2cnc(N(C)C)s2)n1` [Compound 10143, 4-(4-(2-(dimethylamino)thiazol-5-yl)-6-((S)-3-methylmorpholino)-1,3,5-triazin-2-yloxy)-N,N-dimethylbenzamide], at Recombinant mTOR (FRAP1), the concentration for half-maximal inhibition (IC50) is more than 1000 nM. Besides, in test [1], the inhibition at 1 µM is less than 50% and the half-maximal inhibitory concentration (IC50) is more than 1000 nM.

For `C[C@H]1COCCN1c1nc(Oc2ccc(C(=O)N(C)C)cc2F)nc(-c2ccc3[nH]ncc3c2)n1` [Compound 10051, (S)-4-((4-(1H-indazol-5-yl)-6-(3-methylmorpholino)-1,3,5-triazin-2-yl)oxy)-3-fluoro-N,N-dimethylbenzamide], on Recombinant mTOR (FRAP1), the inhibition at 1 µM is more than 50% and the half-inhibitory concentration (IC50) was less than 1000 nM. Besides, the IC50 in test [1] is more than 1000 nM.

In the case of `CN(C)C(=O)[C@H]1CC[C@H](Oc2nc(-c3ccc(N)nc3)nc(N3CCO[C@@H]4CCC[C@H]43)n2)CC1` [Compound 10148, (1R,4r)-4-(4-(6-aminopyridin-3-yl)-6-((4aR,7aR)-hexahydrocyclopenta[b][1,4]oxazin-4(4aH)-yl)-1,3,5-triazin-2-yloxy)-N,N-dimethylcyclohexanecarboxamide], the IC50 at Recombinant mTOR (FRAP1) was less than 1000 nM. Moreover, in test [1], the inhibition at 1 µM is less than 50%.

For the molecule `CN(C)C(=O)N1CCC(Oc2nc(-c3cnc(N)s3)nc(N3CCOCC3)n2)CC1` [Compound 10003, 4-(4-(2-aminothiazol-5-yl)-6-morpholino-1,3,5-triazin-2-yloxy)-N,N-dimethylpiperidine-1-carboxamide], on Recombinant mTOR (FRAP1), the inhibition at 1 µM was more than 50% and the IC50 was less than 1000 nM. The same molecule showed an IC50 in test [1] of less than 1000 nM.

`C[C@H]1COCCN1c1nc(Oc2ccc(C(=O)N(C)C)cc2F)nc(-c2ccc3[nH]ccc3c2)n1` [Compound 10100, (S)-4-((4-(1H-indol-5-yl)-6-(3-methylmorpholino)1,3,5-triazin-2-yl)oxy)3-fluoro-N,N-dimethylbenzamide]: on Recombinant mTOR (FRAP1), the inhibition at 1 µM was more than 50%. Also, the IC50 (at Recombinant mTOR (FRAP1); in test [1]) was less than 1000 nM in each case.

As to `C[C@@H]1CN(c2nc(Oc3ccc(C(=O)N(C)C)cc3)nc(-c3cnc(N)s3)n2)[C@@H](C)CO1` [Compound 10076, 4-((4-(2-Aminothiazol-5-yl)-6-((2R,5S)-2,5-dimethylmorpholino)-1,3,5-triazin-2-yl)oxy)-N,N-dimethylbenzamide], the inhibition at 1 µM on Recombinant mTOR (FRAP1) was more than 50%; in test [1], less than 50%. Further, the IC50 at Recombinant mTOR (FRAP1) is less than 1000 nM; in test [1] it was more than 1000 nM.

In the case of `C[C@H]1COCCN1c1nc(OC2CCC(C(=O)N(C)C)CC2)nc(-c2ccc3[nH]ccc3c2)n1` (stereo partly drawn) [Compound 10141, (1R,4s)-4-(4-(1H-indol-5-yl)-6-((S)-3-methylmorpholino)-1,3,5-triazin-2-yloxy)-N,N-dimethylcyclohexanecarboxamide], on Recombinant mTOR (FRAP1), the IC50 is less than 1000 nM. In addition, in test [1], the inhibition at 1 µM was less than 50% and the 50% inhibitory concentration (IC50) was more than 10000 nM.

For `C[C@@H]1CN(c2nc(Oc3ccc(C(=O)N(C)C)cc3F)nc(-c3ccc(N)nc3)n2)[C@@H](C)CO1` [Compound 10098, 4-((4-(6-Aminopyridin-3-yl)-6-((2R,5S)-2,5-dimethylmorpholino)-1,3,5-triazin-2-yl)oxy)-3-fluoro-N,N-dimethylbenzamide], the IC50 (at Recombinant mTOR (FRAP1); in test [1]) was less than 1000 nM in each case. Besides, the inhibition at 1 µM in test [1] is more than 50%.

For `CN(C)C(=O)c1ccc(Oc2nc(-c3cccc4[nH]ncc34)nc(N3[C@@H]4CC[C@H]3COC4)n2)cc1` [Compound 10174, 4-((4-((1R,5S)-3-oxa-8-azabicyclo[3.2.1]octan-8-yl)-6-(1H-indazol-4-yl)-1,3,5-triazin-2-yl)oxy)-N,N-dimethylbenzamide], the inhibition at 1 µM on Recombinant mTOR (FRAP1) was less than 50%. Besides, the IC50 in test [1] is more than 1000 nM.

On to `C[C@H]1COCCN1c1nc(O[C@H]2CC[C@H](C(=O)N(C)C)CC2)nc(-c2ccc3[nH]ncc3c2)n1` [Compound 10202, (1S,4r)-4-((4-(1H-indazol-5-yl)-6-((S)-3-methylmorpholino)-1,3,5-triazin-2-yl)oxy)-N,N-dimethylcyclohexane-1-carboxamide], for which the results for the IC50 (on Recombinant mTOR (FRAP1); in test [1]) were more than 1000 nM and more than 10000 nM, respectively.

For the molecule `C[C@H]1COCCN1c1nc(OC2CCN(C(=O)N(C)C)C2)nc(-c2cnc(N)s2)n1` (stereo partly drawn) [Compound 10138, 3-(4-(2-aminothiazol-5-yl)-6-((S)-3-methylmorpholino)-1,3,5-triazin-2-yloxy)-N,N-dimethylpyrrolidine-1-carboxamide], the inhibition at 1 µM on Recombinant mTOR (FRAP1) is less than 50%; in test [1], more than 50%. Also, the IC50 at Recombinant mTOR (FRAP1) was more than 1000 nM; in test [1] it was less than 1000 nM.

With `C[C@H]1COCCN1c1nc(Oc2ccc(C(=O)N(C)C)cc2)nc(-c2cnc(N)nc2)n1` [Compound 10126, 4-(4-(2-aminopyrimidin-5-yl)-6-((S)-3-methylmorpholino)-1,3,5-triazin-2-yloxy)-N,N-dimethylbenzamide], at Recombinant mTOR (FRAP1), the inhibition at 1 µM is more than 50% and the 50% inhibitory concentration (IC50) is less than 1000 nM. In test [1], this molecule displayed an IC50 of less than 1000 nM.

For `C[C@@H]1OCCN(c2nc(Oc3ccc(C(=O)N(C)C)cc3)nc(-c3cnc(N)s3)n2)[C@H]1C` [Compound 10142, 4-(4-(2-aminothiazol-5-yl)-6-((2S,3S)-2,3-dimethylmorpholino)-1,3,5-triazin-2-yloxy)-N,N-dimethylbenzamide], the values for the IC50 (at Recombinant mTOR (FRAP1); in test [1]) were less than 1000 nM and more than 10000 nM, respectively.

`CNc1ncc(-c2nc(Oc3ccc(C(=O)N(C)C)cc3)nc(N3CCOCC3)n2)s1` [Compound 10007, N,N-dimethyl-4-(4-(2-(methylamino)thiazol-5-yl)-6-morpholino-1,3,5-triazin-2-yloxy)benzamide]: at Recombinant mTOR (FRAP1), the inhibition at 1 µM is more than 50%. Besides, the IC50 on Recombinant mTOR (FRAP1) was less than 1000 nM; in test [1], more than 1000 nM.

On to `C[C@@H]1CN(c2nc(Oc3ccc(C(=O)N(C)C)cc3F)nc(-c3cnc(N)s3)n2)[C@@H](C)CO1` [Compound 10057, 4-((4-(2-Aminothiazol-5-yl)-6-((2R,5S)-2,5-dimethylmorpholino)-1,3,5-triazin-2-yl)oxy)-3-fluoro-N,N-dimethylbenzamide], for which the concentration for half-maximal inhibition (IC50) at Recombinant mTOR (FRAP1) is less than 1000 nM. In addition, the inhibition at 1 µM in test [1] is less than 50%.

`C[C@@H]1CN(c2nc(Oc3ccc(C(=O)N(C)C)cc3)nc(-c3cnc(N)s3)n2)C[C@H](C)O1` [Compound 10122, 4-(4-(2-aminothiazol-5-yl)-6-((2S,6R)-2,6-dimethylmorpholino)-1,3,5-triazin-2-yloxy)-N,N-dimethylbenzamide]: the inhibition at 1 µM was more than 50% at Recombinant mTOR (FRAP1) and less than 50% in test [1]. The IC50 on Recombinant mTOR (FRAP1) is more than 1000 nM.

On to `C[C@H]1COCCN1c1nc(OC2CCC(C(=O)N(C)C)CC2)nc(-c2cccc(CO)c2)n1` (stereo partly drawn) [Compound 10147, (1R,4s)-4-(4-(3-(hydroxymethyl)phenyl)-6-((S)-3-methylmorpholino)-1,3,5-triazin-2-yloxy)-N,N-dimethylcyclohexanecarboxamide], for which the IC50 on Recombinant mTOR (FRAP1) was more than 1000 nM. Also, the inhibition at 1 µM in test [1] was more than 50%.

Regarding `C[C@@H]1CN(c2nc(Oc3ccc(C(=O)N(C)C)cc3)nc(-c3cnc(N)s3)n2)CCO1` [Compound 10073, (R)-4-((4-(2-Aminothiazol-5-yl)-6-(2-methylmorpholino)-1,3,5-triazin-2-yl)oxy)-N,N-dimethylbenzamide], at Recombinant mTOR (FRAP1), the inhibition at 1 µM is more than 50% and the IC50 was less than 1000 nM. Further, in test [1], the inhibition at 1 µM was more than 50% and the IC50 was less than 1000 nM.

Turning to `CN(C)C(=O)c1ccc(Oc2nc(-c3cnc(N)s3)nc(N3CCOCC3(C)C)n2)cc1` [Compound 10128, 4-(4-(2-aminothiazol-5-yl)-6-(3,3-dimethylmorpholino)-1,3,5-triazin-2-yloxy)-N,N-dimethylbenzamide], the inhibition at 1 µM (at Recombinant mTOR (FRAP1); in test [1]) was more than 50% in each case. The IC50 (at Recombinant mTOR (FRAP1); in test [1]) was less than 1000 nM in each case.

`CN(C)C(=O)c1ccc(Oc2nc(-c3cnc(N)s3)nc(N3CCCCC3)n2)cc1` [Compound 10119, 4-(4-(2-aminothiazol-5-yl)-6-(piperidin-1-yl)-1,3,5-triazin-2-yloxy)-N,N-dimethylbenzamide]: at Recombinant mTOR (FRAP1), the inhibition at 1 µM was less than 50%. This molecule also displayed an IC50 in test [1] of more than 10000 nM.

With `C[C@H]1COCCN1c1nc(Oc2ccc(C(=O)N(C)C)cc2F)nc(-c2cnc(N)nc2)n1` [Compound 10204, (S)-4-((4-(2-aminopyrimidin-5-yl)-6-(3-methylmorpholino)-1,3,5-triazin-2-yl)oxy)-3-fluoro-N,N-dimethylbenzamide], the IC50 (on Recombinant mTOR (FRAP1); in test [1]) was less than 1000 nM in each case.

In the case of `CN(C)C(=O)c1ccc(Oc2nc(-c3ccc(N)nc3)nc(N3CC4CCC(C3)O4)n2)c(F)c1` [Compound 10095], the values for the IC50 (on Recombinant mTOR (FRAP1); in test [1]) were less than 1000 nM and more than 1000 nM, respectively. For the same molecule, in test [1], the inhibition at 1 µM was less than 50%.

For the molecule `CN(C)C(=O)c1ccc(Oc2nc(-c3cnc(N)s3)nc(N3C[C@H]4C[C@@H](C3)O4)n2)cc1` [Compound 10046, 4-(4-(2-aminothiazol-5-yl)-6-((1R,5S)-6-oxa-3-azabicyclo[3.1.1]heptan-3-yl)-1,3,5-triazin-2-yloxy)-N,N-dimethylbenzamide], the inhibition at 1 µM (on Recombinant mTOR (FRAP1); in test [1]) was less than 50% each time.

What is called IC50 is the midpoint of a concentration-inhibition curve.
